# US9192639B1, “Convolvulus extract for treatment of peptic ulcer and helicobacter pylori infection” (KING SAUD UNIVERSITY, priority 2014, dated 2015)
# What was measured:
# [1] = tested on: H. pylori clinical isolates and reference strain ATCC 43504; assay: Disk diffusion test, anti-Helicobacter pylori activity; assay type: cell-based; design: key to Inhibition Zone: *R: Resistant
# [2] = tested on: absolute ethanol-induced ulcer in Wistar rats; assay: Anti-ulcerogenic activity, absolute ethanol-induced ulcer model; assay type: in vivo; details: oral 100 mg/kg; for % Protection: % protection of control ulcer, 100 mg/kg
# Description: Evaluation of the anti-ulcerogenic activity was carried out using an absolute ethanol-induced ulcer model according to published methods. About 30 Wistar rats were divided into 5 groups, each of 6 rats. Group 1 received the vehicle and served as control group. Group 2 received ranitidine (100 mg/kg) and served as a standard group. […] Rats of all groups were fasted for 24 hours, and then all medications were administered orally. […] The stomachs were rapidly removed, opened along their greater curvature, and gently rinsed under running tap water. The number of lesions in the glandular part of the stomach was measured under an illuminated magnifying microscope (10×). Long lesions were counted and their lengths were measured. Petechial lesions were counted, and then each five petechial lesions were taken as 1 mm of ulcer. The mucosal lesions were quantified by the scoring system (0-5), where 0=no damage; 1=Local edema and inflammation without ulcers; 2=One ulcer without inflammation; 3=one to two ulcers with inflammation & lesion diameter <1 cm; 4=More than two ulcers with lesion diameter 1-2 cm; 5=Sever ulceration with lesion diameter >2 cm. To calculate the ulcer index (mm), the sum of the total length of long ulcers and petechial lesions in each group of rats was divided by its number. The curative ratio was determined according to the formula: % Protection of control ulcer=Control UI−Test UI/Control UI×100.
smiles,measurement,setting,value
CC1(C)S[C@@H]2[C@H](NC(=O)[C@H](N)c3ccc(O)cc3)C(=O)N2[C@H]1C(=O)O [Amoxicillin],Inhibition Zone,"[1]; H. pylori strain ATCC 43504, disk 30 μg",30 mm
same,Inhibition Zone,"[1]; H. pylori strain KA01, disk 30 μg",R*
same,Inhibition Zone,"[1]; H. pylori strain KA01, disk 30 μg, listed as amoxicillin",resistant
same,Inhibition Zone,"[1]; H. pylori strain KA02, disk 30 μg",20 mm
same,Inhibition Zone,"[1]; H. pylori strain KA03, disk 30 μg",21 mm
same,Inhibition Zone,"[1]; H. pylori strain KA04, disk 30 μg",20 mm
same,Inhibition Zone,"[1]; H. pylori strain KA05, disk 30 μg",22 mm
same,Inhibition Zone,"[1]; H. pylori strain KA07, disk 30 μg",25 mm
same,Inhibition Zone,"[1]; H. pylori strain KAO6, disk 30 μg",23 mm
same,Susceptibility of H. pylori isolates by disc diffusion,[1]; all isolates with the exception of isolate KA01,sensitive
CC[C@H]1OC(=O)[C@H](C)[C@@H](O[C@H]2C[C@@](C)(OC)[C@@H](O)[C@H](C)O2)[C@H](C)[C@@H](O[C@@H]2O[C@H](C)C[C@H](N(C)C)[C@H]2O)[C@](C)(O)C[C@@H](C)C(=O)[C@H](C)[C@@H](O)[C@]1(C)O [Erythromycin],Inhibition Zone,"[1]; H. pylori strain ATCC 43504, disk 15 μg",28 mm
same,Inhibition Zone,"[1]; H. pylori strain KA01, disk 15 μg",19 mm
same,Inhibition Zone,"[1]; H. pylori strain KA02, disk 15 μg",23 mm
same,Inhibition Zone,"[1]; H. pylori strain KA03, disk 15 μg",22 mm
same,Inhibition Zone,"[1]; H. pylori strain KA04, disk 15 μg",22 mm
same,Inhibition Zone,"[1]; H. pylori strain KA05, disk 15 μg",20 mm
same,Inhibition Zone,"[1]; H. pylori strain KA07, disk 15 μg",23 mm
same,Inhibition Zone,"[1]; H. pylori strain KAO6, disk 15 μg",24 mm
same,Susceptibility of H. pylori isolates by disc diffusion,[1]; all of the isolates of H. pylori,sensitive
CNC(=C[N+](=O)[O-])NCCSCc1ccc(CN(C)C)o1 [Ranitidine],% Protection,[2],46.2%
same,% Protection,[2]; listed as ranitidine,about 46.2%
same,Score,[2]; mucosal lesion scoring system 0-5,2.2
